According to PubChem BioAssay (NCI):
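Step 1: Grow cells in 96-well plates. Step 2: Expose to compound for 48 hours at 5 concentrations. Step 3: Interpolate endpoints linearly; if unreached, use highest concentration. TGI: concentration producing complete growth inhibition.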

Test system: BT-549 breast
Assay: NCI tumour cell line growth inhibition, 48 h

| SMILES | TGI |
| --- | --- |
| O=c1[nH]nc(-c2ccccc2)n1-n1cnnc1 | > 100 µM |
| C[C@H](CCC(=O)NCC(=O)O)[C@H]1CC[C@H]2[C@@H]3[C@H](O)C[C@@H]4C[C@H](O)CC[C@]4(C)[C@H]3CC[C@]12C | > 100 µM |
| Cc1ccc(NC(=O)CC(=O)n2nc(C)c(N=Nc3cccc(C)c3)c2C)cc1 | > 100 µM |
| N#C/C(=C\c1ccc2[nH]ccc2c1)C(=O)c1ccc(O)c(O)c1 | > 100 µM |
| COC1CC(OC2C(C)OC(OC3C(C)OC(OC4C(C)OC(O[C@H]5CC[C@@]6(C)C(=CC[C@]7(O)[C@@H]6C[C@@H](O)[C@@]6(C)[C@]7(O)CC[C@@]6(O)C(C)=O)C5)CC4OC)CC3OC)CC2OC)OC(C)C1O (stereo not given in full) | > 12.5 µM |
| O=[N+]([O-])/C(C(Cl)=C(Cl)Cl)=C(/Nc1ccccc1)Sc1ccccc1 | 66.9 µM |
| Cc1ccc2c(c1C)C(=O)/C(=C/c1cccc(C)c1C(=O)O)C2 | > 100 µM |
| CC/C(N)=N\NC(=O)OC(C)(C)C | > 100 µM |
| CN(C)CCCNC(=O)c1cn2c(ccc3sc4ccccc4c(=O)c32)n1 | 37.8 µM |
| O=P(O)(O)CN1CCNCCN(CP(=O)(O)O)CC1 | > 100 µM |
| CC(C)NC(=O)OCc1c(COC(=O)NC(C)C)c(-c2cc[n+](COC(=O)C3CCCCC3)cc2)n2c1CCC2 | > 100 µM |
| O=S(=O)(O)c1cc(S(=O)(=O)O)c2c(N=Nc3ccc(N=Nc4ccccc4)cc3)c(O)ccc2c1 | > 100 µM |
| CC(C)(C)[Si](C)(C)OC[C@H](/C=C\CCCC(=O)O)NC1(c2ccccc2)c2ccccc2-c2ccccc21 | 91.6 µM |
| CN(C)CCNC(=O)c1c(O)ccc2c1c1c(n2CCc2ccccc2)C(=O)c2ccccc2C1=O | 32.6 µM |
| Cc1csc(-n2c(C)nc3cc(Cl)ccc3c2=O)n1 | > 100 µM |

Test system: HCC-2998 colon
Assay: NCI tumour cell line growth inhibition, 48 h

| SMILES | TGI |
| --- | --- |
| O=c1[nH]nc(-c2ccccc2)n1-n1cnnc1 | > 100 µM |
| C[C@H](CCC(=O)NCC(=O)O)[C@H]1CC[C@H]2[C@@H]3[C@H](O)C[C@@H]4C[C@H](O)CC[C@]4(C)[C@H]3CC[C@]12C | > 100 µM |
| Cc1ccc(NC(=O)CC(=O)n2nc(C)c(N=Nc3cccc(C)c3)c2C)cc1 | > 100 µM |
| N#C/C(=C\c1ccc2[nH]ccc2c1)C(=O)c1ccc(O)c(O)c1 | > 100 µM |
| COC1CC(OC2C(C)OC(OC3C(C)OC(OC4C(C)OC(O[C@H]5CC[C@@]6(C)C(=CC[C@]7(O)[C@@H]6C[C@@H](O)[C@@]6(C)[C@]7(O)CC[C@@]6(O)C(C)=O)C5)CC4OC)CC3OC)CC2OC)OC(C)C1O (stereo not given in full) | > 12.5 µM |
| O=[N+]([O-])/C(C(Cl)=C(Cl)Cl)=C(/Nc1ccccc1)Sc1ccccc1 | 32.8 µM |
| Cc1ccc2c(c1C)C(=O)/C(=C/c1cccc(C)c1C(=O)O)C2 | > 100 µM |
| CC/C(N)=N\NC(=O)OC(C)(C)C | > 100 µM |
| CN(C)CCCNC(=O)c1cn2c(ccc3sc4ccccc4c(=O)c32)n1 | 25.4 µM |
| O=P(O)(O)CN1CCNCCN(CP(=O)(O)O)CC1 | > 100 µM |
| CC(C)NC(=O)OCc1c(COC(=O)NC(C)C)c(-c2cc[n+](COC(=O)C3CCCCC3)cc2)n2c1CCC2 | > 100 µM |
| O=S(=O)(O)c1cc(S(=O)(=O)O)c2c(N=Nc3ccc(N=Nc4ccccc4)cc3)c(O)ccc2c1 | > 100 µM |
| CC(C)(C)[Si](C)(C)OC[C@H](/C=C\CCCC(=O)O)NC1(c2ccccc2)c2ccccc2-c2ccccc21 | 37.2 µM |
| CN(C)CCNC(=O)c1c(O)ccc2c1c1c(n2CCc2ccccc2)C(=O)c2ccccc2C1=O | 2.96 µM |
| Cc1csc(-n2c(C)nc3cc(Cl)ccc3c2=O)n1 | > 100 µM |

Test system: HCT-116 colon
Assay: NCI tumour cell line growth inhibition, 48 h

| SMILES | TGI |
| --- | --- |
| O=c1[nH]nc(-c2ccccc2)n1-n1cnnc1 | > 100 µM |
| C[C@H](CCC(=O)NCC(=O)O)[C@H]1CC[C@H]2[C@@H]3[C@H](O)C[C@@H]4C[C@H](O)CC[C@]4(C)[C@H]3CC[C@]12C | > 100 µM |
| Cc1ccc(NC(=O)CC(=O)n2nc(C)c(N=Nc3cccc(C)c3)c2C)cc1 | > 100 µM |
| N#C/C(=C\c1ccc2[nH]ccc2c1)C(=O)c1ccc(O)c(O)c1 | > 100 µM |
| COC1CC(OC2C(C)OC(OC3C(C)OC(OC4C(C)OC(O[C@H]5CC[C@@]6(C)C(=CC[C@]7(O)[C@@H]6C[C@@H](O)[C@@]6(C)[C@]7(O)CC[C@@]6(O)C(C)=O)C5)CC4OC)CC3OC)CC2OC)OC(C)C1O (stereo not given in full) | > 12.5 µM |
| O=[N+]([O-])/C(C(Cl)=C(Cl)Cl)=C(/Nc1ccccc1)Sc1ccccc1 | 38.4 µM |
| Cc1ccc2c(c1C)C(=O)/C(=C/c1cccc(C)c1C(=O)O)C2 | > 100 µM |
| CC/C(N)=N\NC(=O)OC(C)(C)C | > 100 µM |
| CN(C)CCCNC(=O)c1cn2c(ccc3sc4ccccc4c(=O)c32)n1 | 2.98 µM |
| O=P(O)(O)CN1CCNCCN(CP(=O)(O)O)CC1 | > 38 µM |
| CC(C)NC(=O)OCc1c(COC(=O)NC(C)C)c(-c2cc[n+](COC(=O)C3CCCCC3)cc2)n2c1CCC2 | > 100 µM |
| O=S(=O)(O)c1cc(S(=O)(=O)O)c2c(N=Nc3ccc(N=Nc4ccccc4)cc3)c(O)ccc2c1 | > 100 µM |
| CC(C)(C)[Si](C)(C)OC[C@H](/C=C\CCCC(=O)O)NC1(c2ccccc2)c2ccccc2-c2ccccc21 | 44.8 µM |
| CN(C)CCNC(=O)c1c(O)ccc2c1c1c(n2CCc2ccccc2)C(=O)c2ccccc2C1=O | 10.5 µM |
| Cc1csc(-n2c(C)nc3cc(Cl)ccc3c2=O)n1 | > 100 µM |

Test system: HOP-92 NSCLC
Assay: NCI tumour cell line growth inhibition, 48 h

| SMILES | TGI |
| --- | --- |
| O=c1[nH]nc(-c2ccccc2)n1-n1cnnc1 | > 100 µM |
| C[C@H](CCC(=O)NCC(=O)O)[C@H]1CC[C@H]2[C@@H]3[C@H](O)C[C@@H]4C[C@H](O)CC[C@]4(C)[C@H]3CC[C@]12C | > 100 µM |
| Cc1ccc(NC(=O)CC(=O)n2nc(C)c(N=Nc3cccc(C)c3)c2C)cc1 | > 100 µM |
| N#C/C(=C\c1ccc2[nH]ccc2c1)C(=O)c1ccc(O)c(O)c1 | > 100 µM |
| COC1CC(OC2C(C)OC(OC3C(C)OC(OC4C(C)OC(O[C@H]5CC[C@@]6(C)C(=CC[C@]7(O)[C@@H]6C[C@@H](O)[C@@]6(C)[C@]7(O)CC[C@@]6(O)C(C)=O)C5)CC4OC)CC3OC)CC2OC)OC(C)C1O (stereo not given in full) | > 12.5 µM |
| O=[N+]([O-])/C(C(Cl)=C(Cl)Cl)=C(/Nc1ccccc1)Sc1ccccc1 | 68.3 µM |
| Cc1ccc2c(c1C)C(=O)/C(=C/c1cccc(C)c1C(=O)O)C2 | > 91 µM |
| CC/C(N)=N\NC(=O)OC(C)(C)C | > 100 µM |
| CN(C)CCCNC(=O)c1cn2c(ccc3sc4ccccc4c(=O)c32)n1 | 24.7 µM |
| O=P(O)(O)CN1CCNCCN(CP(=O)(O)O)CC1 | > 100 µM |
| CC(C)NC(=O)OCc1c(COC(=O)NC(C)C)c(-c2cc[n+](COC(=O)C3CCCCC3)cc2)n2c1CCC2 | > 100 µM |
| O=S(=O)(O)c1cc(S(=O)(=O)O)c2c(N=Nc3ccc(N=Nc4ccccc4)cc3)c(O)ccc2c1 | > 100 µM |
| CC(C)(C)[Si](C)(C)OC[C@H](/C=C\CCCC(=O)O)NC1(c2ccccc2)c2ccccc2-c2ccccc21 | 25.5 µM |
| CN(C)CCNC(=O)c1c(O)ccc2c1c1c(n2CCc2ccccc2)C(=O)c2ccccc2C1=O | 22.7 µM |
| Cc1csc(-n2c(C)nc3cc(Cl)ccc3c2=O)n1 | > 100 µM |
